According to patent US4377697A, “Imidazole hydrazone and hydrazine derivatives” (priority 1982, dated 1983):
Converted amounts (≈) assume the structure as drawn. Structures can show the parent of a compound that is named as a salt. Where two headings read alike, the source gives them in different places.

Columns and labels:
[1] = test system: Clostridium sporogenes; assay: in vitro anti-anaerobic assay, minimum inhibitory concentration; format: cell-based, Clostridium sporogenes (ATCC 19404); details: ATCC 19404, 24 hours at 37° C., range of three runs; for MIC: Clostridium sporogenes, ATCC19404, 24 h, read-out: Minimum Inhibitory Concentrations, Clostridium sporogenes
Description: (§1) The results of in vitro assays for a number of compounds according to the invention are given in Table 1, which follows the Examples.
(§2) These tests were conducted by mixing a series of decreasing amounts of the compound under test with a liquid nutrient medium that had been inoculated with one of the test organisms. These preparations were incubated for 24 hours at 37° C. under anaerobic conditions and were then examined for the presence of growth as indicated by the turbidity in the liquid medium. Results were recorded as the lowest concentrations, in mg/l, of test compound that prevented growth of the test organisms (minimal inhibitory concentrations). Each test was run three times and the range of results are indicated.

[2] = test system: Bacterioides fragilis; assay: as above; format: cell-based, Bacterioides fragilis (ATCC 23745); details: ATCC 23745, 24 hours at 37° C., range of three runs; for MIC: 24 h, read-out: Minimum Inhibitory Concentrations, Bacterioides fragilis
Description: as §1, §2

[3] = test system: Propionibacterium acnes; assay: as above; format: cell-based, Propionibacterium acnes (ATCC 6919); details: Cutibacterium acnes, ATCC6919, ATCC 6919, 24 hours at 37° C., range of three runs, read-out: Minimum Inhibitory Concentrations, Propionibacterium acnes
Description: as §1, §2

[4] = test system: Desulfovibrio desulfuricans; assay: in vitro assay against non-pathogenic anaerobe, minimum inhibitory concentration; format: cell-based; details: 24 hours at 37° C., anaerobic, range of three runs; for MIC: Desulfovibrio desulfuricans, 24 h
Description: These preparations were incubated for 24 hours at 37° C. under anaerobic conditions and were then examined for the presence of growth as indicated by the turbidity in the liquid medium. […] The tests were conducted as described for the pathogenic organisms discussed above.

[5] = test system: Candida albicans; assay: in vitro anti-fungal assay, minimum inhibitory concentration; format: cell-based
Description: as §2
(§3) The tests were conducted as described for the anaerobic bacteria with the exception that the organisms were incubated aerobically and kept at 30° C., apart from C.albicans which was kept at 37° C. Each test was run in duplicate.

[6] = test system: Microsporum canis; assay: as above; format: cell-based; details: aerobic, 30° C., in duplicate, read-out: Minimum Inhibitory Concentrations, Microsporum canis
Description: as §2, §3

[7] = test system: Trichophyton mentagrophytes; assay: as above; format: cell-based; details: aerobic, 30° C., in duplicate, read-out: Minimum Inhibitory Concentrations, Trichophyton mentagrophytes
Description: as §2, §3

[8] = test system: Trichophyton rubrum; assay: as above; format: cell-based; details: aerobic, 30° C., in duplicate, read-out: Minimum Inhibitory Concentrations, Trichophyton rubrum
Description: as §2, §3

[9] = test system: Epidermophyton floccosom; assay: as above; format: cell-based, Epidermophyton floccosum; details: aerobic, 30° C., in duplicate, read-out: Minimum Inhibitory Concentrations, Epidermophyton floccosom
Description: as §2, §3

[10] = test system: anaerobic bacteria; details: known from the literature; cited from earlier work
[11] = reported in the literature; cited from earlier work
[12] = AIP-BREWER, read-out: Minimum Inhibitory Concentrations, D.desulfuricans AIP-BREWER
[13] = API SW2, read-out: Minimum Inhibitory Concentrations, D.desulfuricans API SW2
[14] = API-CORE, read-out: Minimum Inhibitory Concentrations, Desulfovibrio desulfuricans API-CORE
[15] = strain 3153, aerobic, 37° C., in duplicate, read-out: Minimum Inhibitory Concentrations, C.albicans 3153
[16] = strain A, aerobic, 37° C., in duplicate, read-out: Minimum Inhibitory Concentrations, Candida albicans A
[17] = strain B, aerobic, 37° C., in duplicate, read-out: Minimum Inhibitory Concentrations, C.albicans B
[18] = strain GB, aerobic, 37° C., in duplicate, read-out: Minimum Inhibitory Concentrations, C.albicans GB

Compound: Clc1ccc(NN=C2c3ccccc3CCCC2n2ccnc2)c(Cl)c1 (centres unmarked) [1 (a), 6-(1H-imidazol-1-yl)6,7,8,9-tetrahydro-5-benzocycloheptanone, 2,4-dichlorophenylhydrazone, hydrogen oxalate]
- MIC [1]: 0.5 to 2.5 µg/mL
- MIC [2]: 1 to 2.5 µg/mL
- MIC [3]: 2.5 µg/mL
- Minimum Inhibitory Concentrations, D.desulfuricans AIP-BREWER ([4]; AIP-BREWER): 0.5 mg/L
- Minimum Inhibitory Concentrations, D.desulfuricans API SW2 ([4]; API SW2): 0.5 mg/L

Compound: Clc1ccc(NN=C2c3ccccc3CCCC2n2ccnc2)c(Cl)c1 (centres unmarked) [1 (b), 6-(1H-imidazol-1-yl)-6,7,8,9-tetrahydro-5-benzocycloheptanone, 2,4-dichlorophenylhydrazone, hydrochloride]
- Minimum Inhibitory Concentrations, Clostridium sporogenes ([1]; hydrochloride): 0.5 to 1.0 mg/L
- Minimum Inhibitory Concentrations, Bacterioides fragilis ([2]; hydrochloride): 0.5 to 1.0 mg/L
- MIC [4, 12]: 0.5 to 0.75 µg/mL
- MIC [4, 13]: 0.5 to 1 µg/mL
- MIC [4, 14]: 0.5 µg/mL

Compound: Clc1ccc(NN=C2c3ccccc3CCCCC2n2ccnc2)c(Cl)c1 (centres unmarked) [1 (d), 6-(1H-Imidazol-1-yl)-7,8,9,10-tetrahydro-5(6H)-benzocyclooctanone, 2,4-dichlorophenylhydrazone hydrochloride]
- MIC [1]: 0.5 to 0.75 µg/mL
- MIC [2]: 1 to 2.5 µg/mL
- MIC [3]: 0.5 to 2.5 µg/mL
- MIC [4, 12]: 0.5 to 1 µg/mL
- MIC [4, 13]: 0.5 to 0.75 µg/mL
- MIC [4, 14]: 0.5 to 2.5 µg/mL

Compound: Clc1ccc(NN=C2c3sccc3CCCC2n2ccnc2)c(Cl)c1 (centres unmarked) [1 (j), 7-(1H-Imidazol-1-yl)-4,5,6,7-tetrahydro-8H-cyclohepta[b]-thiophen-8-one, 2 ,4-dichlorophenylhydrazone hydrogen oxalate]
- MIC [1]: 1 to 2.5 µg/mL
- MIC [2]: 0.75 to 1 µg/mL
- MIC [3]: 5 µg/mL
- MIC [4, 12]: 0.5 to 0.75 µg/mL
- MIC [4, 13]: 0.75 to 1 µg/mL
- MIC [4, 14]: 0.75 to 1 µg/mL

Compound: Clc1cc(Cl)c(NN=C2c3ccc(Cl)cc3CCCC2n2ccnc2)c(Cl)c1 (centres unmarked) [3 (b), 2-Chloro-6-(1H-imidazol-1-yl)-6,7,8,9-tetrahydro-5-benzocycloheptanone,2,4,6-trichlorophenylhydrazone hydrochloride]
- MIC [1]: 0.75 to 1 µg/mL
- MIC [2]: 0.75 to 1 µg/mL
- MIC [3]: 5 µg/mL
- MIC [4, 12]: 0.75 µg/mL
- MIC [4, 13]: 0.75 to 2.5 µg/mL
- MIC [4, 14]: 0.75 to 1 µg/mL
- MIC [5, 15]: 6.2 µg/mL
- MIC [5, 16]: 6.2 µg/mL
- MIC [5, 17]: 6.2 µg/mL
- MIC [5, 18]: 6.2 µg/mL
- MIC [6]: 25 µg/mL
- MIC [7]: 25 µg/mL

Compound: Clc1cc(Cl)c(NN=C2c3ccccc3CCCCC2n2ccnc2)c(Cl)c1 (centres unmarked) [3 (c), 6-(1H-Imidazol-1-yl)-7,8,9,10-tetrahydro-5(6H)-benzocyclooctanone, 2,4,6-trichlorophenylhydrazone hydrochloride]
- MIC [1]: 0.5 to 1 µg/mL
- MIC [2]: 2.5 µg/mL
- MIC [3]: 2.5 µg/mL
- MIC [4, 12]: 0.5 to 0.75 µg/mL
- MIC [4, 13]: 0.5 to 0.75 µg/mL
- MIC [4, 14]: 0.75 to 1 µg/mL

Compound: Clc1cc(Cl)c(NN=C2c3ccccc3CCCC2n2ccnc2)c(Cl)c1 (centres unmarked) [3 (d), 6-(1H-Imidazol-1-yl)-6,7,8,9-tetrahydro-5-benzocycloheptanone, 2,4,6-trichlorophenylhydrazone hydrogen oxalate]
- MIC [5, 15]: 12.5 µg/mL
- MIC [5, 16]: 6.2 µg/mL
- MIC [5, 17]: 6.2 µg/mL
- MIC [5, 18]: 12.5 µg/mL
- MIC [6]: 6.2 µg/mL
- MIC [7]: > 100 µg/mL
- MIC [8]: 1.5 µg/mL

Compound: Cl.Clc1cc(Cl)c(NN=C2c3ccccc3OCCC2n2ccnc2)c(Cl)c1 (centres unmarked) [3 (i), 3,4-Dihydro-4-(1H-imidazol-1-yl)-1-benzoxepin-5(2H)-one, 2,4,6-trichlorophenylhydrazone hydrochloride]
- MIC [5, 15]: 12.5 µg/mL
- MIC [5, 16]: 12.5 µg/mL
- MIC [5, 17]: 12.5 µg/mL
- MIC [6]: 3.1 µg/mL
- MIC [7]: 3.1 µg/mL
- MIC [8]: 6.2 µg/mL
- MIC [9]: 3.1 µg/mL

Compound: Clc1cc(Cl)c(NN=C2c3ccsc3CCCC2n2ccnc2)c(Cl)c1 (centres unmarked) [3 (l), 5-(1H-Imidazol-1-yl)-5,6,7,8-tetrahydro-4H-cyclohepta[b]thiophen-4-one,2,4,6-trichlorophenylhydrazone hydrogen oxalate]
- MIC [5, 15]: 12.5 µg/mL
- MIC [5, 16]: 6.2 µg/mL
- MIC [5, 17]: 6.2 µg/mL
- MIC [6]: 12.5 µg/mL
- MIC [7]: 25 µg/mL
- MIC [8]: 12.5 µg/mL
- MIC [9]: 6.2 µg/mL

Compound: Cc1ncc([N+](=O)[O-])n1CCO [Metronidazole, metronidazole, reference compound]
- MIC [1]: 0.5 µg/mL (≈ 2.92 µM)
- MIC [2]: 0.5 µg/mL (≈ 2.92 µM)
- MIC [3]: > 100 µg/mL
- MIC [4, 12]: 0.5 µg/mL (≈ 2.92 µM)
- MIC [4, 13]: 0.5 µg/mL (≈ 2.92 µM)
- MIC [4, 14]: 0.5 µg/mL (≈ 2.92 µM)
- activity against anaerobic bacteria [10]: active against anaerobic bacteria
- teratogenicity [11]: teratogenic

Compound: Clc1ccc(COC(Cn2ccnc2)c2ccc(Cl)cc2Cl)c(Cl)c1 (centres unmarked) [Miconazole, reference compound]
- MIC ([5]; read-out: Minimum Inhibitory Concentrations, C.albicans 3153): 12.5 µg/mL (≈ 30 µM)
- MIC ([5]; read-out: Minimum Inhibitory Concentrations, C.albicans B): 6.2 µg/mL (≈ 14.9 µM)
- MIC ([5]; read-out: Minimum Inhibitory Concentrations, C.albicans GB): 12.5 µg/mL (≈ 30 µM)
- MIC ([5]; read-out: Minimum Inhibitory Concentrations, Candida albicans A): 6.2 µg/mL (≈ 14.9 µM)
- MIC [6]: 6.2 µg/mL (≈ 14.9 µM)
- MIC [7]: 1.5 µg/mL (≈ 3.6 µM)
- MIC [8]: 3.1 µg/mL (≈ 7.45 µM)
- MIC [9]: 6.2 µg/mL (≈ 14.9 µM)
